# Measurements: patent publication US8586555B2, “Immunomodulatory compositions, formulations, and methods for use thereof” (Dynavax Technologies Corporation, priority 2001, dated 2013)
# Columns and labels:
# [1] = system: human peripheral blood mononuclear cells (hPBMC); assay: human PBMC assay, Example 4 (oligos and PLGA premixed 15 minutes); format: cell-based; conditions: for IFN-α Mean / IFN-γ Mean: mean of donors 28044, 28045
# Protocol: (§1) Hexameric oligonucleotides were tested for immunomodulatory activity alone and complexed with lactic acid/glycolic acid copolymer microcarrier beads using a human peripheral blood mononuclear cells (hPBMC) assay. Peripheral blood was collected from healthy volunteers by venipuncture using heparinized syringes. Blood was layered onto a FICOLL® (Amersham Pharmacia Biotech) cushion and centrifuged. hPBMCs, located at the FICOLL® interface, were collected, then washed twice with cold phosphate buffered saline (PBS). The cells were resuspended and cultured in 48 well plates at 2×10^6 cells/mL at 37° C. in RPMI 1640 with 10% heat-inactivated human AB serum plus 50 units/mL penicillin, 50 μg/mL streptomycin, 300 μg/mL glutamine, 1 mM sodium pyruvate, and 1×MEM non-essential amino acids (NEAA).
# (§2) Oligonucleotides were tested as single agents, or in combination with PLGA microspheres (unmodified or cationic). All oligonucleotides contained 100% phosphorothioate linkages and were tested at 20 μg/ml. The PLGA microcarriers were used at 250 μg/ml. When oligos were tested with PLGA microcarriers, the oligo and the microcarriers were added at the same time to the culture. The cells were cultured in the in the presence of test samples for 24 hours, then cell-free medium was collected from each well and assayed for IFN-γ and IFN-α concentration. Two different oligonucleotides were used as controls: a first oligonucleotide known to have immunostimulatory activity (a 22mer oligonucleotide containing an ISS (“ISS+,” 5′-[…]-3′(SEQ ID NO:2)) and a second oligonucleotide of similar sequence but lacking immunostimulatory activity (“ISS−,” 5′-[…]-3′ (SEQ ID NO:1)). SAC (PANSORBIN® CalBiochem, 1/5000 dilution) and a untreated culture were used as additional positive and negative controls, respectively. SAC contains Staph. aureus (Cowan I) cell material. All samples were assayed in duplicate.
# (§3) IFN-γ and IFN-α were assayed using CYTOSCREEN™ ELISA kits from BioSource International, Inc., according to the manufacturer's instructions.
# Additional hexameric and pentameric oligonucleotides were tested for immunomodulatory activity in the PBMC assay. Oligonucleotides 6-6 (5′-TCGAGA-3′), 6-8 (5′-GTCGAC-3′), 6-9 (5′-GTCGTT-3′), 6-2 (5′-TCGTTT-3′), 6-3 (5′-TTCGTT-3′), 6-4 (5′-TTTCGT-3′), 5-1 (5′-TCGTC-3′), and 5-2 (5′-TCGTT-3′) were tested alone or in combination with cationic PLGA as described in Example 3 except that the oligos and PLGA were premixed for 15 minutes room temperature before addition to the cultures. The test articles were assayed using PBMC isolated from donors 28044 and 28045.
# [2] = system: human peripheral blood mononuclear cells (hPBMC); assay: human PBMC assay, Example 5 (96 well plates, premixed); format: cell-based; conditions: for IFN-α Mean / IFN-γ Mean: mean of donors 28051-28054
# Protocol: as §1, §2, §3
# The immunomodulatory activity of the oligonucleotides used in Examples 3 and 4 was confirmed with the human PBMC assay using PBMCs from an additional four donors (donors 28051-28054). Oligonucleotides were tested alone or in combination with cationic PLGA as described in Example 3, except that 96 well plates were used instead of 48 well plates and the oligonucleotides were premixed with the cationic microspheres at room temperature for 15 minutes before they were added to the culture, rather than being added simultaneously to the culture.
# [3] = delivered as IMO/MC complexes (cPLGA)
Substance,IFN-α ([1]; donor 28044) [pg/mL],IFN-γ ([1]; donor 28044) [pg/mL],IFN-α ([1]; donor 28045) [pg/mL],IFN-γ ([1]; donor 28045) [pg/mL],IFN-α Mean [1] [pg/mL],IFN-γ Mean [1] [pg/mL],immunomodulatory activity ([2]; delivered alone),"immunomodulatory activity [2, 3]",IFN-α ([2]; donor 28051) [pg/mL],IFN-γ ([2]; donor 28051) [pg/mL],IFN-α ([2]; donor 28052) [pg/mL],IFN-γ ([2]; donor 28052) [pg/mL],IFN-α ([2]; donor 28053) [pg/mL],IFN-γ ([2]; donor 28053) [pg/mL],IFN-α ([2]; donor 28054) [pg/mL],IFN-γ ([2]; donor 28054) [pg/mL],IFN-α Mean [2] [pg/mL],IFN-γ Mean [2] [pg/mL]
5′-GTCGAC-3′ [Oligonucleotide 6-8],0,6,0,0,0,3,inactive,highly active,1,0,0,0,6,1,0,2,2,1
5′-GTCGTT-3′ [Oligonucleotide 6-9],0,6,0,0,0,3,inactive,highly active,0,1,0,0,6,2,0,1,2,1
5′-TCGAGA-3′ [Oligonucleotide 6-6],0,0,0,0,0,0,inactive,highly active,1,2,4,2,0,1,10,2,4,2
5′-TCGTC-3′ [Oligonucleotide 5-1],0,6,0,7,0,6,inactive,highly active,0,1,3,0,1,1,1,0,1,1
5′-TTCGTT-3′ [Oligonucleotide 6-3],0,6,0,0,0,3,inactive,highly active,0,1,5,0,5,5,0,0,3,2
5′-TTTCGT-3′ [Oligonucleotide 6-4],0,13,0,0,0,6,,variable activity,0,3,2,0,11,2,0,0,3,1
